Source: patent publication US11446287B2, “Compounds and methods for EP300 or CBP modulation and indications therefor” (Opna Immuno-Oncology SA, priority 2019, dated 2022)

target: T1, Recombinant human EP300 containing the bromodomain (EP300-BD (1040-1161)) (Homo sapiens, UniProt Q09472); assay: EP300 Alphascreen binding assay
T1 construct: Recombinant human EP300 bromodomain (EP300-BD (1040-1161)); made in house; host or cells: E. coli BL21-CodonPlus (DE3), modified pET vector
T1 sequence (Q09472 1040-1161): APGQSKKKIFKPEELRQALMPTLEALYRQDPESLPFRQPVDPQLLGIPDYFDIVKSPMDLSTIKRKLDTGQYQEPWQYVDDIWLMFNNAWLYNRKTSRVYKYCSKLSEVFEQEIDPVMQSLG
Experimental: EP300 Alphascreen Binding Assay
Binding of compounds of Formula (I) with EP300 was assessed using Alphascreen™ binding assay. The inhibition of the interaction between the EP300 bromodomain and its acetylated target protein was measured quantitatively using recombinant EP300 protein, an acetylated Histone 3 peptide and AlphaScreen™ technology. In absence of inhibition of the EP300 protein bound to AlphaScreen™ nickel chelate acceptor beads can interact with the acetylated Histone 3 peptide which is immobilized by the AlphaScreen™ Streptavidin coated beads. This interaction brings donor and acceptor beads in proximity. The close proximity allows the singlet oxygen produced by laser excitation of the donor beads to reach the acceptor beads and generate a luminescence signal. EP300 inhibitors result in a decrease in the proximity signal through an inhibition of the EP300—acetylated peptide interaction.
Recombinant human EP300 containing the bromodomain (EP300-BD (1040-1161)) was prepared and purified as described in protein expression and purification session. The peptide is human Histone H345-64K56Ac-Biotin (Anaspec CA, USA).
Protocol for EP300 assay: All components were prepared in buffer composed of 50 mM HEPES pH 7.5, 50 mM NaCl, 0.01% BSA, 0.01% Triton X-100, 2 mM DTT. Test compounds and DMSO vehicle were diluted 1:50 in buffer and a 4 μL volume is transferred to an Alphaplate. 5.5 μL of EP300 protein and 5.5 μL of peptide were added to wells containing 4 μL of various concentrations of test compounds of Formula (I) or DMSO vehicle in an Alphaplate (PerkinElmer GA, USA) and incubated for 1 hour at room temperature. 5 μL donor and acceptor bead mixture was then added with final concentrations of 7.5 μg/ml. 60 minutes after bead addition, Alpha signal is read on the Envision spectrometer (λEx 680 nm, λEm 520-620 nm). Final concentrations of bromodomain proteins and peptide are as shown below.
All data were normalized to the mean of 16 high and 16 low control wells on each plate. A four parameter curve fit of the following formula was then applied: Y=A+((B−A)/(1+((C/x)^D))) Where ‘A’ is the minimum, ‘B’ is the maximum, ‘C’ is the IC50 and ‘D’ is the Hill slope. Protein Expression and Purification
Recombinant human EP300 bromodomain (EP300-BD (1040-1161)) was expressed in E. coli cells (in a modified pET vector) with an N-terminal six-His tag and purified using a combination of both IMAC (Ni-affinity) and size exclusion chromatography steps.
Recombinant EP300 protein was expressed using the E. coli strain BL21-CodonPlus (DE3) (Agilent Technologies CA, USA). Cells were grown in Terrific Broth (TB) media to an OD600 of 0.7 at 37° C. at which temperature was reduced to 18° C., protein was induced with 1.0 mM isopropyl-β-D-thiogalactopyranoside (“IPTG”) for 20 hours and harvested by centrifugation at 8500×g for 20 minutes. Cells were re-suspended in 0.1M K2PO4 pH 8.0, 250 mM NaCl, 10% Glycerol, 0.75% NP-40, 25 mM Imidazole, with 0.2 mg/ml Lysozyme, 0.2 mM phenylmethanesulfonyl fluoride (“PMSF”), 25 μg/ml DNase I, incubated on ice for 30 minutes and lysed with a cell disruptor (MicroFluidics MA, USA). The lysate was clarified by centrifugation at 20,000×g for 1 hour. The protein was captured with Ni-NTA resin (Life Technologies, USA). Contaminating proteins were washed off with 50 mM HEPES pH 7.5, 500 mM NaCl, and 5% Glycerol. Following 3× wash steps, protein was eluted step wise using 10, 25, 50, 100, 150, and 250 mM Imidazole in 50 mM HEPES pH 7.5, 500 mM NaCl, and 5% glycerol. The protein was further purified using a size exclusion column (26/600 Superdex 200, GE Biosciences NJ, USA) in 10 mM HEPES pH 7.5, […].

SMILES	IC50 [nM]
Cc1ccc(S(=O)(=O)n2cc(-c3ccc(C(=O)O)cc3)c3cc(-c4c(C)noc4C)cnc32)cc1 [P-0006, 4-(5-(3,5-dimethylisoxazol-4-yl)-1-tosyl-1H-pyrrolo[2,3-b]pyridin-3-yl)benzoic acid]	1000 to 8000
Cc1noc(C)c1-c1cnc2c(c1)c(-c1ccc(C(=O)O)cc1)cn2C(c1ccccn1)C1CC1 (stereo not drawn) [P-0007, 4-(1-(cyclopropyl(pyridin-2-yl)methyl)-5-(3,5-dimethylisoxazol-4-yl)-1H-pyrrolo[2,3-b]pyridin-3-yl)benzoic acid]	0.1 to 1000
Cc1noc(C)c1-c1cnc2c(c1)c(-c1ccc(C(=O)O)cc1)cn2C(c1ccccn1)C1CCC1 (stereo not drawn) [P-0008, 4-(1-(cyclobutyl(pyridin-2-yl)methyl)-5-(3,5-dimethylisoxazol-4-yl)-1H-pyrrolo[2,3-b]pyridin-3-yl)benzoic acid]	0.1 to 1000
Cc1noc(C)c1-c1cnc2c(CC3CCC3)cn(-c3ccc(C(=O)O)cn3)c2c1 [P-0009, 6-(3-(cyclobutylmethyl)-6-(3,5-dimethylisoxazol-4-yl)-1H-pyrrolo[3,2-b]pyridin-1-yl)nicotinic acid]	0.1 to 1000
Cc1noc(C)c1-c1cnc2c(CC3CC3)cn(-c3ccc(C(=O)O)cn3)c2c1 [P-0010, 6-(3-(cyclopropylmethyl)-6-(3,5-dimethylisoxazol-4-yl)-1H-pyrrolo[3,2-b]pyridin-1-yl)nicotinic acid]	0.1 to 1000
Cc1noc(C)c1-c1cnc2c(Cc3ccccn3)cn(-c3ccc(C(=O)O)cn3)c2c1 [P-0011, 6-(6-(3,5-dimethylisoxazol-4-yl)-3-(pyridin-2-ylmethyl)-1H-pyrrolo[3,2-b]pyridin-1-yl)nicotinic acid]	0.1 to 1000
Cc1noc(C)c1-c1cnc2c(c1)c(-c1ccc(C(=O)O)cc1)cn2C(c1ccccn1)c1ccccn1 [P-0012, 4-(1-(di(pyridin-2-yl)methyl)-5-(3,5-dimethylisoxazol-4-yl)-1H-pyrrolo[2,3-b]pyridin-3-yl)benzoic acid]	0.1 to 1000
Cc1noc(C)c1-c1cnc2c(c1)c(-c1ccc(C(=O)O)cc1F)cn2[C@@H](C)c1ccccn1 [P-0097, (S)-4-(5-(3,5-dimethylisoxazol-4-yl)-1-(1-(pyridin-2-yl)ethyl)-1H-pyrrolo[2,3-b]pyridin-3-yl)-3-fluorobenzoic acid]	0.1 to 1000
COc1ccc(C(=O)O)cc1-n1cc(CC2CCC2)c2ncc(-c3c(C)noc3C)cc21 [P-0098, 3-(3-(cyclobutylmethyl)-6-(3,5-dimethylisoxazol-4-yl)-1H-pyrrolo[3,2-b]pyridin-1-yl)-4-methoxybenzoic acid]	0.1 to 1000
Cc1noc(C)c1-c1cnc2c(C(=O)c3cccc(OC(F)F)c3)cn(-c3ccnc(C(=O)O)c3)c2c1 [P-0099, 4-(3-(3-(difluoromethoxy)benzoyl)-6-(3,5-dimethylisoxazol-4-yl)-1H-pyrrolo[3,2-b]pyridin-1-yl)picolinic acid]	0.1 to 1000
Cc1noc(C)c1-c1cnc2c(Cc3cccc(OC(F)F)c3)cn(-c3ccnc(C(=O)O)c3)c2c1 [P-0100, 4-(3-(3-(difluoromethoxy)benzyl)-6-(3,5-dimethylisoxazol-4-yl)-1H-pyrrolo[3,2-b]pyridin-1-yl)picolinic acid]	0.1 to 1000
Cc1noc(C)c1-c1cnc2c(c1)c(-c1cccc(C(=O)O)c1)cn2CC1CC(F)(F)C1 [P-0101, 3-(1-((3,3-difluorocyclobutyl)methyl)-5-(3,5-dimethylisoxazol-4-yl)-1H-pyrrolo[2,3-b]pyridin-3-yl)benzoic acid]	0.1 to 1000
Cc1noc(C)c1-c1cnc2c(c1)c(-c1cccc(C(=O)O)c1)cn2CC1(C)COC1 [P-0102, 3-(5-(3,5-dimethylisoxazol-4-yl)-1-((3-methyloxetan-3-yl)methyl)-1H-pyrrolo[2,3-b]pyridin-3-yl)benzoic acid]	1000 to 8000
COc1cc(C(=O)O)cc(OC)c1-c1cn([C@@H](C)c2ccccn2)c2ncc(-c3c(C)noc3C)cc12 [P-0103, (S)-4-(5-(3,5-dimethylisoxazol-4-yl)-1-(1-(pyridin-2-yl)ethyl)-1H-pyrrolo[2,3-b]pyridin-3-yl)-3,5-dimethoxybenzoic acid]	0.1 to 1000
Cc1noc(C)c1-c1cnc2c(CC3CCC3)cn(-c3ccc(C#N)c(C(=O)O)c3)c2c1 [P-0104, 2-cyano-5-(3-(cyclobutylmethyl)-6-(3,5-dimethylisoxazol-4-yl)-1H-pyrrolo[3,2-b]pyridin-1-yl)benzoic acid]	0.1 to 1000
Cc1noc(C)c1-c1cnc2c(CC3CCC3)cn(-c3ccc(C(=O)O)c(C#N)c3)c2c1 [P-0105, 2-cyano-4-(3-(cyclobutylmethyl)-6-(3,5-dimethylisoxazol-4-yl)-1H-pyrrolo[3,2-b]pyridin-1-yl)benzoic acid]	0.1 to 1000
Cc1noc(C)c1-c1cnc2c(c1)c(-c1cncc(C(=O)O)n1)cn2[C@@H](C)c1ccccn1 [P-0106, (S)-6-(5-(3,5-dimethylisoxazol-4-yl)-1-(1-(pyridin-2-yl)ethyl)-1H-pyrrolo[2,3-b]pyridin-3-yl)pyrazine-2-carboxylic acid]	1000 to 8000
Cc1noc(C)c1-c1cnc2c(c1)c(-c1nccc(C(=O)O)n1)cn2[C@@H](C)c1ccccn1 [P-0107, (S)-2-(5-(3,5-dimethylisoxazol-4-yl)-1-(1-(pyridin-2-yl)ethyl)-1H-pyrrolo[2,3-b]pyridin-3-yl)pyrimidine-4-carboxylic acid]	1000 to 8000
CCOc1cc(C(=O)O)cc(F)c1-n1cc(CC2CCC2)c2ncc(-c3c(C)noc3C)cc21 [P-0108, 4-(3-(cyclobutylmethyl)-6-(3,5-dimethylisoxazol-4-yl)-1H-pyrrolo[3,2-b]pyridin-1-yl)-3-ethoxy-5-fluorobenzoic acid]	0.1 to 1000
CCOc1cc(C(=O)O)cc(OCC)c1-n1cc(CC2CCC2)c2ncc(-c3c(C)noc3C)cc21 [P-0109, 4-(3-(cyclobutylmethyl)-6-(3,5-dimethylisoxazol-4-yl)-1H-pyrrolo[3,2-b]pyridin-1-yl)-3,5-diethoxybenzoic acid]	0.1 to 1000
Cc1noc(C)c1-c1cnc2c(CC3CCC3)cn(-c3ccc(C(=O)O)c4ccoc34)c2c1 [P-0110, 7-(3-(cyclobutylmethyl)-6-(3,5-dimethylisoxazol-4-yl)-1H-pyrrolo[3,2-b]pyridin-1-yl)benzofuran-4-carboxylic acid]	0.1 to 1000
Cc1noc(C)c1-c1cnc2c(CC3CCC3)cn(-c3c(OC(C)C)cc(C(=O)O)cc3OC(C)C)c2c1 [P-0111, 4-(3-(cyclobutylmethyl)-6-(3,5-dimethylisoxazol-4-yl)-1H-pyrrolo[3,2-b]pyridin-1-yl)-3,5-diisopropoxybenzoic acid]	0.1 to 1000
Cc1noc(C)c1-c1cnc2c(c1)c(-c1ccc(C(=O)O)cc1OC(C)C)cn2[C@@H](C)c1ccccn1 [P-0112, (S)-4-(5-(3,5-dimethylisoxazol-4-yl)-1-(1-(pyridin-2-yl)ethyl)-1H-pyrrolo[2,3-b]pyridin-3-yl)-3-isopropoxybenzoic acid]	0.1 to 1000
CCCOc1cc(C(=O)O)ccc1-c1cn([C@@H](C)c2ccccn2)c2ncc(-c3c(C)noc3C)cc12 [P-0113, (S)-4-(5-(3,5-dimethylisoxazol-4-yl)-1-(1-(pyridin-2-yl)ethyl)-1H-pyrrolo[2,3-b]pyridin-3-yl)-3-propoxybenzoic acid]	0.1 to 1000
